experiment: GHS categories as the set defines them, by LD50: 1 up to 5, 2 up to 50, 3 up to 300, 4 up to 2000, 5 above 2000 mg/kg; conditions: rat; in vivo; po

`C=CC(=O)OCCCOCC(C)(C)COCCCOC(=O)C=C` and `CCCCCCCC(=O)OCCC` are the same in GHS category: 5 for the first, 5 for the second.

`CCOC(=O)CCSc1cc(NC(=O)C(=O)OCC)ncn1` and `CCN(C(=O)CCCSc1nnnn1C)c1ccccn1` are the same in GHS category: 4 for the first, 4 for the second.

`C#CCOc1ccc(CCNC(=O)C(OCC#C)c2ccc(Cl)cc2)cc1OC` (configuration not stated) and `CCOc1ccc(C(=O)NCc2ccc(OCCNC)cc2)cc1OCC` are the same in GHS category: 5 for the first, 5 for the second.

`CCC[C@H]1CC[C@H](c2ccc(O)cc2)CC1` and `COC(=O)c1ccc2c(C3CCCC3)cn(C)c2c1` are the same in GHS category: 5 for the first, 5 for the second.

`O=c1[nH]c(=O)n([C@H]2C[C@H](O)[C@@H](CO)O2)cc1C(F)(F)F` and `CC12CCC(=O)NC1=CCC1C2CCC2(C)C(C(=O)O)CCC12` (configuration not stated) are the same in GHS category: 5 for the first, 5 for the second.

`CCCCCCCCCCOCCN1CCCC1=O` and `CCCCCCCCC=O` are the same in GHS category: 5 for the first, 5 for the second.

Compared with `CC(C)N1C2CCC1CC(=O)C2`, `CC(=O)OC1CCCCC1C` (configuration not stated) is higher in GHS category: 3 for the first, 5 for the second.

`CNC(=O)C(=NNc1ccc(OC)cc1)C(C)=O` and `CNC(=O)C(=NNc1ccc([N+](=O)[O-])cc1OC)C(C)=O` are the same in GHS category: 5 for the first, 5 for the second.

`CCCCCCCCC(=O)OCC(CC)(COC(=O)CCCCCCCC)COC(=O)CCCCCCCC` and `CCCCC(CC)COC(=O)CCCCCCCCC(=O)OCC(CC)CCCC` (configuration not stated) are the same in GHS category: 5 for the first, 5 for the second.

`CC1(C(=O)Nc2ccc(O)c(Cl)c2Cl)CCCCC1` and `Cc1ccc(Cl)cc1NC(=O)c1cc2ccccc2cc1O` are the same in GHS category: 5 for the first, 5 for the second.

`CC(C)CCOCCC(C)C` and `CC(C)CCOCCc1ccccc1` are the same in GHS category: 5 for the first, 5 for the second.

`CC(C)(C)c1ccc(C2=C3C(=O)NC(c4ccc(C(C)(C)C)cc4)=C3C(=O)N2)cc1` and `Cc1ccc(I)cc1Cc1ccc(-c2ccc(F)cc2)s1` are the same in GHS category: 5 for the first, 5 for the second.

`CC(C)(Sc1cc(C(C)(C)C)c(O)c(C(C)(C)C)c1)Sc1cc(C(C)(C)C)c(O)c(C(C)(C)C)c1` and `COc1cccc(C(=O)NN(C(=O)c2cc(C)cc(C)c2)C(C)(C)C)c1C` are the same in GHS category: 5 for the first, 5 for the second.

`CCCCC(CC)C(=O)OC` (configuration not stated) and `CCCCCC(=O)OCCC(C)C` are the same in GHS category: 5 for the first, 5 for the second.

`Nc1c(/N=N/c2ccc(S(=O)(=O)CCOS(=O)(=O)O)cc2)c(S(=O)(=O)O)cc2cc(S(=O)(=O)O)c(/N=N/c3ccc(S(=O)(=O)CCOS(=O)(=O)O)cc3)c(O)c12` and `O=S(=O)(O)c1ccc(/N=N/c2c(O)ccc3cc(S(=O)(=O)O)ccc23)cc1` are the same in GHS category: 5 for the first, 5 for the second.

`N=C1C=CC2=CC(S(=O)(=O)O)=CC(=O)C2=C1NNc1ccc(-c2ccc(N=Nc3cc(S(=O)(=O)O)c4ccccc4c3N)cc2)cc1` and `O=S(=O)(O)c1ccc2c(ccc3nn(-c4ccc(C=Cc5ccc(-n6cncn6)cc5S(=O)(=O)O)c(S(=O)(=O)O)c4)nc32)c1` are the same in GHS category: 5 for the first, 5 for the second.

`O=CN(O)CCCP(=O)(O)O` and `O=C(O)CCC(=O)O` are the same in GHS category: 5 for the first, 5 for the second.

`CCN(CC)CCOC(=O)c1ccc(NC(=O)C(C)(C)Oc2ccccc2Cl)cc1` and `COc1ccc(C(=O)Nc2ccccc2)cc1N` are the same in GHS category: 5 for the first, 5 for the second.

`CC(C)OC(=O)C(C)N(C(=O)c1ccccc1)c1ccc(F)c(Cl)c1` (configuration not stated) and `Nc1ccc(C(=O)c2ccccc2)cc1O` are the same in GHS category: 5 for the first, 5 for the second.

Compared with `O=c1[nH]sc2cc(Cl)ccc12`, `O=c1oc2ccc(Cl)cc2n1CO` is lower in GHS category: 5 for the first, 4 for the second.

`Cc1c(Cl)ccc(OC(C)C(O)=Nc2ccccc2)c1Cl` (configuration not stated) and `CN1C(=O)C(O)N=C(c2ccccc2Cl)c2cc(Cl)ccc21` (configuration not stated) are the same in GHS category: 5 for the first, 5 for the second.

`CCCCCCBr` and `CCCCCCCC1CCCO1` (configuration not stated) are the same in GHS category: 5 for the first, 5 for the second.

First: CCCCCCNC(=O)c1cnc2cccc(C)n2c1=O
Second: Cc1ccc(S(=O)(=O)NCCCCCC(=O)O)cc1
The GHS category of the first is lower: 3 for the first, 5 for the second.

Compared with `CC1(C)S[C@@H]2[C@H](NC(=O)COc3ccccc3)C(=O)N2[C@H]1C(=O)O`, `CN[C@H](CC(N)=O)C(=O)NC(=O)[C@@H](N[C@@H]1C(=O)N2C1SC(C)(C)[C@@H]2C(=O)O)c1ccc(O)cc1` (some centres not stated) is higher in GHS category: 4 for the first, 5 for the second.

`CCCCCC(=O)OC1(C(C)=O)CCC2C3CCC4=CC(=O)CCC4C3CCC21C` (configuration not stated) and `C[C@]12CC[C@H](O)CC1=CC[C@@H]1[C@@H]2CC[C@]2(C)C(=O)CC[C@@H]12` are the same in GHS category: 5 for the first, 5 for the second.

First: NC(=O)O
Second: Nc1ccc(C(=O)O)cc1
The GHS category of the first is lower: 4 for the first, 5 for the second.

First: CCNC(=O)CCSCc1nnnn1-c1ccccc1
Second: CC(C)CC(=O)OCc1ccccc1
The GHS category of the first is lower: 4 for the first, 5 for the second.

First: O=C(O)CCCCCCCCCCNS(=O)(=O)c1ccc(Cl)cc1C(=O)c1ccccc1
Second: CCCCCCCCCCCCCC(=O)Nc1ccc(Cc2ccccn2)c([N+](=O)[O-])c1
The GHS category of the first is higher: 4 for the first, 3 for the second.

`CCOC(=O)c1sc(-c2ccc(OCC(C)C)c(C=O)c2)nc1C` and `CCOC(=O)c1cc(=O)c2c(OCC(O)COc3cccc4oc(C(=O)OCC)cc(=O)c34)cccc2o1` are the same in GHS category: 5 for the first, 5 for the second.

`CN1CC(c2ccn(-c3ccccc3)n2)CC2c3cccc4[nH]cc(c34)CC21` (configuration not stated) and `COc1ccc2c(c1)CCN(c1ccccc1)C2c1ccccc1Cl` (configuration not stated) are the same in GHS category: 4 for the first, 4 for the second.

`CC(=O)C=CC=C(C)CCC=C(C)C` and `CC=CC(=O)OC/C=C(\C)CCC=C(C)C` are the same in GHS category: 5 for the first, 5 for the second.

`COc1cc2c(cc1OC)C(c1ccccc1F)N(c1ccccc1)CC2` (configuration not stated) and `COc1ccc2c(c1)CCN(c1ccccc1)C2c1ccccc1Br` (configuration not stated) are the same in GHS category: 4 for the first, 4 for the second.

`C=CC(C)(CCC=C(C)C)OC=O` (configuration not stated) and `CC(C)=CCC/C(C)=C/COC=O` are the same in GHS category: 5 for the first, 5 for the second.

Compared with `Clc1ccc(CN2CCN=C2c2ccccc2)cc1`, `OC(c1ccccc1)c1ccc(-c2ccccc2)cc1` (configuration not stated) is higher in GHS category: 4 for the first, 5 for the second.

`CCOC(=O)Oc1c(OC)cc(C(=O)O[C@@H]2C[C@@H]3CN4CCc5c([nH]c6cc(OC)ccc56)[C@H]4C[C@@H]3[C@H](C(=O)OC)[C@H]2OC)cc1OC` and `COc1ccc2cc([C@H](C)C(=O)OCCN3CCN(CCOC(=O)[C@@H](C)c4ccc5cc(OC)ccc5c4)CC3)ccc2c1` are the same in GHS category: 5 for the first, 5 for the second.

Compared with `CCCCC(C)OP(=S)(OCC)OCC` (configuration not stated), `CCOP(=S)(Oc1cnc(C(C)(C)C)nc1)OC(C)C` (configuration not stated) is lower in GHS category: 4 for the first, 1 for the second.

First: CC(C)(CO)C(O)C(=O)NCCC(=O)NCCSSCCNC(=O)CCNC(=O)C(O)C(C)(C)CO (configuration not stated)
Second: C=C(C)C(=O)OCCNC(C)(C)C
The GHS category of the first is higher: 5 for the first, 4 for the second.

`CC(C)(C)C1CCC(OC(=O)OOC(=O)OC2CCC(C(C)(C)C)CC2)CC1` (configuration not stated) and `CC(=O)O[C@@]12CCC[C@@](C)(CC[C@@H]3[C@@H]1CC3(C)C)C2` are the same in GHS category: 5 for the first, 5 for the second.

`CCCCCCCC/C=C\CCCCCCCCCCCC(=O)O` and `CC(C)CCCCCCCCCCCCCCCO` are the same in GHS category: 5 for the first, 5 for the second.

First: c1ccc2sc(SSc3nc4ccccc4s3)nc2c1
Second: O=C(O)c1ccccc1N1C(=O)C(Cl)C1c1ccccc1 (configuration not stated)
The GHS category of the first is higher: 5 for the first, 4 for the second.

`C=C(C)C1CCC(C)C(O)C1` (configuration not stated) and `C1C[C@@H]2[C@H]3CC[C@H](C3)[C@@H]2C1` are the same in GHS category: 5 for the first, 5 for the second.

Compared with `CCCCCCCCCCCCCCCCCNP1(=S)OCc2cc([N+](=O)[O-])ccc2O1` (configuration not stated), `CCCCCCC1(C)CCC(=O)O1` (configuration not stated) is higher in GHS category: 3 for the first, 5 for the second.

`COCC1COC(Cn2cncn2)(c2cc3ccccc3o2)O1` (configuration not stated) and `CNc1ncnc2c1ncn2Cc1ccccc1F` are the same in GHS category: 4 for the first, 4 for the second.

`CC1C2Cc3ccc(O)cc3C1(C)CCN2CCCC(=O)c1ccc(F)cc1` (configuration not stated) and `O=C(CCCN1CCC2(CC1)C(=O)NCN2c1ccccc1)c1ccc(F)cc1` are the same in GHS category: 4 for the first, 4 for the second.

`O=C[C@H](O)[C@@H](O)[C@H](O)[C@H](O)CO[C@H]1O[C@H](CO[C@H]2O[C@H](CO)[C@@H](O)[C@H](O)[C@H]2O)[C@@H](O)[C@H](O)[C@H]1O` and `CCC(=O)OC/C=C(/C)CCC=C(C)C` are the same in GHS category: 5 for the first, 5 for the second.

`Cc1ccc(S(=O)(=O)NC(=O)NC(=O)C(Cl)(Cl)Cl)cc1` and `Cc1cccc(OC(=O)c2cc(Cl)ccc2OC(N)=O)c1` are the same in GHS category: 5 for the first, 5 for the second.

Compared with `O=C(CCl)Nc1nc2cc(Cl)ccc2o1`, `CCOc1cc(N)c(Cl)cc1C(=O)NCC1CN(Cc2ccc(F)cc2)CCO1` (configuration not stated) is higher in GHS category: 4 for the first, 5 for the second.

`CC1=CC(=NNc2ccc(N)cc2)C=C(C)C1=O` and `O=C1c2ccccc2C(=O)c2c(Nc3ccccc3)ccc(O)c21` are the same in GHS category: 5 for the first, 5 for the second.

Compared with `CC(C)C1=CC23CCC4C(C)(C(=O)N5CCOCC5)CCCC4(C)C2CC1C1C(=O)OC(=O)C13` (configuration not stated), `Nc1c[n+](N2CCOCC2)no1` is lower in GHS category: 5 for the first, 4 for the second.

Going from `CCCc1nc(C)n2[nH]c(=O)nc2c1Cc1ccc(-c2ccccc2-c2nn[nH]n2)cc1` to `Cc1ccc(C(C)C)c(OC(=O)c2ccccc2Nc2cccc(C)c2C)c1`, the GHS category rises from 4 to 5.

`CCCCN(CCCC)C(=S)SCSC(=S)N(CCCC)CCCC` and `CCC(=O)OC(OC(C(=O)O)[P+](=O)CCCCc1ccccc1)C(C)C` (configuration not stated) are the same in GHS category: 5 for the first, 5 for the second.

`OCCN1CNC(=S)NC1` and `CC1CC(OC(=O)COc2ccc(F)cc2)CC(C)(C)C1` (configuration not stated) are the same in GHS category: 5 for the first, 5 for the second.

`CCC(O)=C1C(=O)CC(C(=O)O)CC1=O` (configuration not stated) and `CCN1CCN(C(=O)N[C@@H](C(=O)N[C@@H]2C(=O)N3C(C(=O)O)=C(CSc4nnnn4C)CS[C@H]23)c2ccc(O)cc2)C(=O)C1=O` are the same in GHS category: 5 for the first, 5 for the second.

`COCCOc1nc(Nc2ccc(C=Cc3ccc(Nc4nc(OCCOC)nc(N(C)CCS(=O)(=O)O)n4)cc3S(=O)(=O)O)c(S(=O)(=O)O)c2)nc(N(C)CCS(=O)(=O)O)n1` and `Nc1cc(S(=O)(=O)O)c2cc(S(=O)(=O)O)cc(S(=O)(=O)O)c2c1` are the same in GHS category: 5 for the first, 5 for the second.

`CCCCNc1cc(C(=O)O)cc(S(N)(=O)=O)c1Oc1ccccc1` and `Cc1cccc(OC(=O)c2ccccc2OC(N)=O)c1` are the same in GHS category: 5 for the first, 5 for the second.

`CCCCOc1nn(-c2cccc(C(F)(F)F)c2)c2ncccc12` and `CCCC(=O)N(C)C(=O)Oc1cccc2c1OCO2` are the same in GHS category: 4 for the first, 4 for the second.

First: ClC(=Nc1c(Cl)c(Cl)c(Cl)c(Cl)c1Cl)C(Cl)(Cl)Cl
Second: CCOC(=O)c1c[nH]c2c(F)c(F)c(F)cc2c1=O
The GHS category of the first is lower: 4 for the first, 5 for the second.

Going from `FC(F)(F)OC(F)(Cl)C(F)(F)Cl` (configuration not stated) to `CC(O)CCl` (configuration not stated), the GHS category falls from 5 to 3.

In the case of `BrC1CC(Br)CC(Br)CC(Br)CC(Br)CC(Br)C1` (mixture of isomers), the GHS category is reported as 5.
